Data set [1] can be described thus: Water solubility of the polymorphs. The class given is physicochemical.
For the next data set, the target named is PDE V isoenzyme (Homo sapiens, UniProt O76074). Kind of data set: PDE V isoenzyme inhibition. The class given is biochemical. Particulars: concentration required to provide 50% inhibition of PDE V isoenzyme. From the text: Forms 1 and 2 of Compound 13 are each useful for inhibiting PDE V isoenzymes. Their isoenzyme activities (potencies) and isoenzyme selectivities can be measured by the PDE V IC50 value, which is the concentration (in nM) of compound required to provide 50% inhibition of PDE V isoenzyme. […] Similarly, an IC50 value may be obtained for other PDE isoenzymes, such as the PDE VI isoenzyme. Isoenzyme selectivity in this respect may be defined as the activity of a PDE inhibitor compound for a particular PDE isoenzyme as opposed to another PDE isoenzyme, for example, the activity of a compound to inhibit a PDE V isoenzyme compared to the activity of the same compound to inhibit a PDE VI isoenzyme.

Data set [2] is described as follows: Thermodynamic stability of the polymorphs. The class given is physicochemical. The conditions noted are these: at process temperatures. How it is done:
The two polymorphs also further differ in their water solubilities (Form 1: about 50 μg/mL vs. Form 2: about 30 μg/mL). […] Form 1 can equilibrate to Form 2 when slurried in one of the Form 2 crystallizing solvents (e.g., alcohol, nitrile, ester, etc.). For example, when a mixture of Form 1 of Compound 13 and Form 2 of Compound 13 is suspended in an organic crystallizing solvent (e.g., ethyl acetate, isopropanol, acetonitrile, and the like), and stored for an extended period of time (e.g., greater than or equal to about 10 hours), the Form 1 component of the mixture will convert to Form 2 of Compound 13.

Values after ≈ are worked out from the molar mass of the structure shown.

As for `CCn1c(=O)c2c(nc(N[C@@H]3CCC[C@H]3O)n2Cc2ccc(OC)c(Br)c2)n(CCO)c1=O` [Form 1 of Compound 13, 1-ethyl-3,7-dihydro-8-[(1R,2R) -(hydroxycyclopentyl)amino]-3-(2-hydroxyethyl)-7-[(3-bromo-4-methoxyphenyl)methyl]-1H-Purine-2,6-dione], in data set [1], the solubility is roughly 50 µg/mL (≈ 95.7 µM). This compound also displayed an IC50 at PDE V isoenzyme of 2 to 3 nM.
Take `CCn1c(=O)c2c(nc(N[C@@H]3CCC[C@H]3O)n2Cc2ccc(OC)c(Br)c2)n(CCO)c1=O` [Form 2 of Compound 13, 1-ethyl-3,7-dihydro-8-[(1R,2R) -(hydroxycyclopentyl)amino]-3-(2-hydroxyethyl)-7-[(3-bromo-4-methoxyphenyl)methyl]-1H-Purine-2,6-dione]: the water solubility result in data set [1] is on record as “about 30 μg/mL”. For the same compound, the thermodynamic stability entry in data set [2] was “more thermodynamically stable than Form 1 of Compound 13”.

Values taken from US7192962B2, “Xanthine phosphodiesterase V inhibitor polymorphs” (Schering Corporation, priority 2002, dated 2007).
